Activity calls are given as the source filed them. The rule behind the calls is not given here.
Tests used:
MCF7 = experiment: Antiproliferative activity against human MCF7 cells assessed as reduction in cell viability measured after 72 hrs by SRB assay; type: functional, cell-based; settings: MCF7, 72 h
Mahlavu [1] = experiment: Antiproliferative activity against human Mahlavu cells assessed as reduction in cell viability measured after 72 hrs by SRB assay; type: functional, cell-based
Huh-7 [2] = experiment: Antiproliferative activity against human Huh-7 cells assessed as reduction in cell viability measured after 72 hrs by SRB assay; type: functional, cell-based; settings: Huh-7, 72 h
Huh-7 [3] = experiment: Upregulation of NANOG mRNA expression in human Huh-7 cells at 10 uM incubated for 72 hrs by RT-qPCR analysis; type: functional, cell-based
Huh-7 [4] = experiment: Upregulation of OCT4 mRNA expression in human Huh-7 cells at 10 uM incubated for 72 hrs by RT-qPCR analysis; type: functional, cell-based
Huh-7 [5] = experiment: Inhibition of cell stemness in human Huh-7 cells assessed as reduction in size of tumor spheres at 10 uM incubated for 72 hrs followed by incubation in sphere formation medium for 14 days by microscopic analysis; type: functional, cell-based; settings: time 17.0 day
Huh-7 [6] = experiment: Inhibition of cell stemness in human Huh-7 cells assessed as reduction in tumor spheres count at 10 uM incubated for 72 hrs followed by incubation in sphere formation medium for 7 days by microscopic analysis; type: functional, cell-based; settings: time 10.0 day
Mahlavu [7] = experiment: Upregulation of OCT4 level in human Mahlavu cells at 10 uM measured after 72 hrs by flow cytometry analysis; type: functional, cell-based
Mahlavu [8] = experiment: Upregulation of OCT4 mRNA expression in human Mahlavu cells at 10 uM incubated for 72 hrs by RT-qPCR analysis; type: functional, cell-based
Huh-7 [9] = experiment: Inhibition of cell stemness in human Huh-7 cells assessed as reduction in size of tumor spheres at 10 uM incubated for 72 hrs followed by incubation in sphere formation medium for 7 days by microscopic analysis; type: functional, cell-based; settings: time 10.0 day
Huh-7 [10] = experiment: Inhibition of cell stemness in human Huh-7 cells assessed as CD133+/EpCAM+ expression at 10 uM measured after 72 hrs by flow cytometry analysis (reference value: 29.92%); type: functional; set-up: scale not given: the % may be the effect or the level left
[11] = Upregulation of NANOG mRNA expression in human Mahlavu cells at 10 uM incubated for 72 hrs by RT-qPCR analysis relative to control; type: functional

| SMILES | IC50 (MCF7) [nM] | IC50 (Mahlavu [1]) [nM] | IC50 (Huh-7 [2]) [nM] | also measured |
| --- | --- | --- | --- | --- |
| N#Cc1cccc(COc2ccc(-c3cc(CN4CCN(Cc5ccc(C(F)(F)F)cc5)CC4)no3)cc2)c1 | 800 | 10600 | 100 |  |
| Cc1cc(C)cc(COc2ccc(-c3cc(CN4CCN(Cc5ccc(C(F)(F)F)cc5)CC4)no3)cc2)c1 | 1600 | 6000 | 600 |  |
| N#Cc1cccc(COc2ccc(-c3cc(CN4CCN(Cc5cccc(F)c5)CC4)no3)cc2)c1 | 2400 | 2600 | 2700 |  |
| N#Cc1cccc(COc2ccc(-c3cc(CNC4CCN(Cc5ccccc5)CC4)no3)cc2F)c1 | 2700 | 2700 | 2300 |  |
| FC(F)(F)c1ccc(CN2CCN(Cc3cc(-c4ccc(OCc5ccc(Cl)cc5)cc4)on3)CC2)cc1 | 6700 | 3700 | 4000 |  |
| Cc1cc(OCc2cccc(C#N)c2)ccc1-c1cc(CN2CCN(Cc3ccc(C(F)(F)F)cc3)CC2)no1 | 400 | 500 | 1500 |  |
| N#Cc1cccc(COc2ccc(-c3cc(CN4CCN(C(=O)C5CC5)CC4)no3)cc2)c1 | 7600 | 4400 | 2800 |  |
| COc1cccc(COc2ccc(-c3cc(CN4CCN(Cc5ccc(C(F)(F)F)cc5)CC4)no3)cc2)c1 | 2000 | 1400 | 800 |  |
| Fc1ccc(COc2ccc(-c3cc(CN4CCN(Cc5ccc(C(F)(F)F)cc5)CC4)no3)cc2)cc1 | 7900 | 3100 | 2000 |  |
| Cc1ccccc1COc1ccc(-c2cc(CN3CCN(Cc4ccc(C(F)(F)F)cc4)CC3)no2)cc1 | 3700 | 6800 | 1200 |  |
| N#Cc1cccc(COc2ccc(-c3cc(CNC4CCN(Cc5ccccc5)CC4)no3)cc2)c1 | 2500 | 2100 | 2500 |  |
| N#Cc1cccc(COc2ccc(-c3cc(CN4CCN(c5ccc(F)cc5)CC4)no3)cc2)c1 | 2400 | 2200 | 1500 |  |
| FC(F)(F)c1ccc(CN2CCN(Cc3cc(-c4ccc(OCc5cccc(Cl)c5)cc4)on3)CC2)cc1 | 1400 | 4100 | 200 |  |
| N#Cc1cccc(COc2ccc(-c3cc(CN4CCN(c5ccc(C(F)(F)F)cn5)CC4)no3)cc2)c1 | 1400 | 1300 | 1700 |  |
| N#Cc1cccc(COc2ccc(-c3cc(CN4CCN(Cc5ccc(F)cc5)CC4)no3)cc2)c1 | 1800 | 1500 | 1600 |  |
| N#Cc1cccc(COc2ccc(-c3cc(CN4CCN(C(=O)c5ccco5)CC4)no3)cc2F)c1 | 1500 | 3600 | 8100 |  |
| N#Cc1cccc(COc2ccc(-c3cc(CN4CCN(Cc5ccc(C(F)(F)F)cc5)CC4)no3)c(F)c2)c1 | 1200 | 400 | 400 |  |
| Fc1cccc(COc2ccc(-c3cc(CN4CCN(Cc5ccc(C(F)(F)F)cc5)CC4)no3)cc2)c1 | 2500 | 2900 | 1300 |  |
| N#Cc1cccc(COc2ccc(-c3cc(CN4CCN(C(=O)c5ccco5)CC4)no3)cc2)c1 | 1900 | 2200 | 2000 |  |

| SMILES | IC50 (MCF7) [nM] | IC50 (Mahlavu [1]) [nM] | IC50 (Huh-7 [2]) [nM] | also measured |
| --- | --- | --- | --- | --- |
| CC(C)(C)OC(=O)N1CCC(NCc2cc(-c3ccc(OCc4cccc(C#N)c4)cc3)on2)CC1 | 2800 | 3000 | 1500 |  |
| N#Cc1cccc(COc2ccc(-c3cc(CN4CCN(Cc5ccccc5F)CC4)no3)cc2)c1 | 1400 | 2300 | 2400 |  |
| Cc1ccc(COc2ccc(-c3cc(CN4CCN(Cc5ccc(C(F)(F)F)cc5)CC4)no3)cc2)cc1 | 1200 | 7500 | 1500 |  |
| N#Cc1ccc(COc2ccc(-c3cc(CN4CCN(Cc5ccc(C(F)(F)F)cc5)CC4)no3)cc2)cc1 | 100 | 4300 | 1000 |  |
| Fc1ccccc1COc1ccc(-c2cc(CN3CCN(Cc4ccc(C(F)(F)F)cc4)CC3)no2)cc1 | 3000 | 3100 | 1500 |  |
| Cc1cc(-c2cc(CN3CCN(Cc4ccc(C(F)(F)F)cc4)CC3)no2)ccc1OCc1cccc(C#N)c1 | 700 | 450 | 600 |  |
| FC(F)(F)c1ccc(CN2CCN(Cc3cc(-c4ccc(OCc5ccccc5Cl)cc4)on3)CC2)cc1 | 2800 | 3200 | 1000 |  |
| COc1cc(COc2ccc(-c3cc(CN4CCN(Cc5ccc(C(F)(F)F)cc5)CC4)no3)cc2)cc(OC)c1 | 100 | 4300 | 1500 |  |
| N#Cc1ccccc1COc1ccc(-c2cc(CN3CCN(Cc4ccc(C(F)(F)F)cc4)CC3)no2)cc1 | 4000 | 3500 | 5000 |  |
| COc1ccccc1COc1ccc(-c2cc(CN3CCN(Cc4ccc(C(F)(F)F)cc4)CC3)no2)cc1 | 300 | 3900 | 900 |  |
| CC(C)(C)OC(=O)N1CCN(Cc2cc(-c3ccc(OCc4cccc(C#N)c4)cc3)on2)CC1 | 3800 | 5600 | 6100 |  |
| N#Cc1cccc(COc2ccc(-c3cc(CN4CCN(CC5CC5)CC4)no3)cc2)c1 | 3500 | 3200 | 2900 |  |
| CNC(=O)c1cc(Oc2ccc(NC(=O)Nc3ccc(Cl)c(C(F)(F)F)c3)cc2)ccn1 [SORAFENIB] |  |  |  | Activity (Huh-7 [3]): Active; Activity (Huh-7 [4]): Active; inhibition (Huh-7 [5]): inactive; inhibition (Huh-7 [6]): inactive; Activity (Mahlavu [7]): Active; Activity (Mahlavu [8]): Active; inhibition (Huh-7 [9]): Active; Activity (Huh-7 [10]): 36.16%; fold change (FC) [11]: 10 |
| Cc1cccc(COc2ccc(-c3cc(CN4CCN(Cc5ccc(C(F)(F)F)cc5)CC4)no3)cc2)c1 | 4000 | 2500 | 5000 |  |
| N#Cc1cccc(COc2ccc(-c3cc(CN4CCN(C(=O)C5CCCO5)CC4)no3)cc2)c1 (stereo not given) | 3800 | 4100 | 2200 |  |
| COc1ccc(COc2ccc(-c3cc(CN4CCN(Cc5ccc(C(F)(F)F)cc5)CC4)no3)cc2)cc1 | 1300 | 4900 | 3200 |  |
| N#Cc1cccc(COc2ccc(-c3cc(CN4CCN(CC5CCCO5)CC4)no3)cc2)c1 (stereo not given) | 8400 | 4800 | 4200 |  |
| N#Cc1cccc(COc2ccc(-c3cc(CN4CCN(c5ccc(C(F)(F)F)cc5)CC4)no3)cc2)c1 | 2000 | 2700 | 2200 |  |
| COc1cc(COc2ccc(-c3cc(CN4CCN(Cc5ccc(C(F)(F)F)cc5)CC4)no3)cc2)cc(OC)c1OC | 1800 | 5800 | 500 |  |

Source: ChEMBL document CHEMBL4837206, “Synthesis and biological evaluation of novel isoxazole-piperazine hybrids as potential anti-cancer agents with inhibitory effect on liver cancer stem cells” (Eur J Med Chem, 2021)
